Like-named read-outs stand apart in the source and are kept apart here.
Experiments:
[1] = target: T1, human NK2 receptor (Homo sapiens, UniProt P21452); experiment: NK2 receptor affinity: competition with [3H]-NKA for binding to membranes of Chinese hamster ovary cells expressing the cloned human NK2 receptor; details: CHO cell membranes, 90 min, 25°C, read-out: NK2 receptor affinity (pKi) (converted)
T1 construct: expressed in transfected cells; host or cells: Chinese hamster ovary cells (membranes)
T1 sequence (P21452 1-398): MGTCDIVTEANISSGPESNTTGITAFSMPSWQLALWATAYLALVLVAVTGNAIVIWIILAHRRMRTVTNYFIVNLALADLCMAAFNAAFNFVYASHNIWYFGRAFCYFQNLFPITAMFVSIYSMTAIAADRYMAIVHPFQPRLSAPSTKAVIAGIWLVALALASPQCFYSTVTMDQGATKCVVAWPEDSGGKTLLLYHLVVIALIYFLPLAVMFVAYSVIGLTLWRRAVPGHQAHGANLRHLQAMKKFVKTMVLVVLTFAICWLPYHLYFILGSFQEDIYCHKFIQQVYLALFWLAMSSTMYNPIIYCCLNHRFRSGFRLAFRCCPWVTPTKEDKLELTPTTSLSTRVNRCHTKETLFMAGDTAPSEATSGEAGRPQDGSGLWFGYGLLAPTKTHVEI
Protocol: The affinity of the compounds of formula (I) and their salts for the human NK2 receptor can be tested in vitro by testing their ability to compete with [^3H]-NKA (neurokinin A) for binding to membranes prepared from Chinese hamster ovary cells expressing the cloned human NK2 receptor. In this method, washed Chinese hamster ovary cell membranes are prepared as described for the previous method where IM9 cells are used instead. The membranes are incubated (90 min, 25°C) with [^3H]-NKA and with a range of concentrations of the test compound. Non-specific binding was determined in the presence of 10µM NKA.
The affinity of the compounds of Tables 1 and 2 for the human NK2 receptor was tested in vitro by testing their ability to compete with [^3H]-NKA for binding to membranes prepared from Chinese hamster ovary cells expressing the cloned human NK2 receptor using the method set out on page 9.
(§1) In Tables 1 and 2 the "pKi" measurement is the negative logarithm of the molar affinity of the test compound for the receptor as determined in radioligand binding assays using standard protocols. A 1.0 log. unit difference in either the NK2 or NK3 receptor affinity figures corresponds to a 10-fold activity difference.

[2] = In vitro metabolic stability: disappearance half-life in human liver microsomes (HLM/37); format: in vitro ADME; details: human liver microsomes HLM/37, test compound 1µM, 37°C, 60 minutes, NADPH, read-out: Metabolic stability (t½)
Protocol: The in vitro metabolic stability of the compounds of the formula (I) and their salts can be tested by incubating samples for 1 hour at 37°C in the presence of a "moderate activity" (re. concentrations of cytochrome p450 enzymes present) human liver microsomal preparation (prepared from human liver homogenates). The samples were analysed by HPLC at regular intervals during this one hour period and the half-life (t½) determined (in minutes).
The metabolic stability of the compounds of Tables 1 and 2 was determined in vitro by the method described on page 10 according to the following experimental protocol.
Transplant-quality human liver tissue was obtained from the International Institute for the Advancement of Medicine (Exton, PA). The donors ranged in age from 26 to 65 years old and included 3 males and 3 females. Hepatic microsomes were prepared from individual human livers by the process of differential centrifugation. Briefly, the liver tissue was homogenised in 50mM Tris HCI (pH 7.4) containing 250mM sucrose and then centrifuged at 9,000G for 20 minutes to remove the cell debris and nuclear fraction. The supernatant layer was removed and further centrifuged at 105,000G for 60 minutes to pellet the microsomal fraction. […] The cytochrome P450 content was determined using the method of Omura, T., Sato, R., J. Biol. Chem., 239, 2379-2385 (1964) and the protein concentration was determined using the method of Lowry et al., J. Biol. Chem., 193, 265-275 (1951), with bovine serum albumin as the protein standard.
The metabolic activities of the 6 major drug metabolising cytochrome P450 enzymes were determined for HLM/37 and compared to values obtained from a bank of individual human livers (n = 19). […]
Aliquots (100µl) were removed from the incubation at 0, 3, 5, 10, 15, 20, 30, 45 and 60 minutes after the addition of NADPH. […] After centrifugation 150µl aliquots were removed and 120µl of each of these analysed by HPLC on a Hypersil HS C18 5µ column (50x4.6mm) with a mobile phase of methanol:water (90:10, by volume) containing 2mM ammonium acetate. […]

[3] = target: T2, NK3 receptor (Cavia porcellus, UniProt P30098); experiment: NK3 receptor affinity: inhibition of [3H]-senktide binding to membranes from guinea pig cortex; details: read-out: NK3 receptor affinity (pKi) (converted)
T2 construct: membranes from guinea pig cortex; from tissue; host or cells: guinea pig cortex membranes
T2 sequence (P30098 1-440): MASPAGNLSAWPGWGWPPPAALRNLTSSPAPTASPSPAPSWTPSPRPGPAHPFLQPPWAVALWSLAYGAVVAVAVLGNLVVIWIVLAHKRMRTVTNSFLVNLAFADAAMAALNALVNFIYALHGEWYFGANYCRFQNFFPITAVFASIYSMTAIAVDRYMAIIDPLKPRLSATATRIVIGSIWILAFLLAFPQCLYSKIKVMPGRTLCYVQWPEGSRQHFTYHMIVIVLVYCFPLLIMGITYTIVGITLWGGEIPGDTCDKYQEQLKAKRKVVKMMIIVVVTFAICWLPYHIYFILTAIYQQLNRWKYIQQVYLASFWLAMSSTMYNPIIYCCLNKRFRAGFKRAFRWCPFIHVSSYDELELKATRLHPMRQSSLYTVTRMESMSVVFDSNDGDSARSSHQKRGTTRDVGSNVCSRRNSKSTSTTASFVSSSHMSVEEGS
Protocol: The compounds of the formula (I) and their salts can be tested for NK3 receptor affinity, in vitro, by testing their ability to inhibit [^3H]-senktide binding to membranes from guinea pig cortex using the method of Guard, et al, Br.J.Pharmacol., 99, 767-773 (1990).
The compounds of Tables 1 and 2 were tested for NK3 receptor affinity, in vitro, by the method described on pages 9 and 10 by testing their ability to inhibit [^3H]-senktide binding to membranes from guinea pig cortex using the method of Guard, et al, Br.J.Pharmacol., 99, 767-773 (1990).
as §1

Ki [1] | half-life at 1 µM ([2]; pH 7.4) | Ki [3] | Structure (SMILES) | half-life at 1 µM [2]
3.98 nM | 1.25 h | – | CS(=O)(=O)N1CCC(C2CN(CC[C@]3(c4ccc(Cl)c(Cl)c4)CCC(=O)N(CC4CC4)C3)C2)CC1 [Example 1, (5S)-1-(Cyclopropylmethyl)-5-(3,4-dichlorophenyl)-5-(2-[3-[1-(methylsulfonyl)-4-piperidinyl]-1-azetanyl]ethyl)tetrahydro-2(1H)-pyridinone] | –
– | – | – | CS(=O)(=O)N1CCC(C2CN(CC[C@]3(c4ccc(Cl)c(Cl)c4)CCC(=O)N(CCC4CC4)C3)C2)CC1 [Example 3] | 0.45 h
1.26 nM | – | – | CS(=O)(=O)N1CCC(C2CN(CC[C@]3(c4ccc(Cl)c(Cl)c4)CCC(=O)N(Cc4ccccc4)C3)C2)CC1 [Example 4] | –
1 nM | – | 25.1 nM | CS(=O)(=O)N1CCC(C2CN(CC[C@]3(c4ccc(Cl)c(Cl)c4)CCC(=O)N(C4CCCC4)C3)C2)CC1 [Example 5] | –
20 nM | – | 5.01 nM | CS(=O)(=O)N1CCC(C2CN(CC[C@]3(c4ccc(Cl)c(Cl)c4)CCC(=O)N(CC4CCCCC4)C3)C2)CC1 [Example 6] | –
3.16 nM | – | – | CS(=O)(=O)N1CCC(C2CN(CC[C@]3(c4ccc(F)c(F)c4)CCC(=O)N(C4CCCCC4)C3)C2)CC1 [Example 7] | –
6.31 nM | – | – | CCS(=O)(=O)N1CCC(C2CN(CC[C@]3(c4ccc(Cl)c(Cl)c4)CCC(=O)N(CC4CC4)C3)C2)CC1 [Example 8, (5S)-1-(Cyclopropylmethyl)-5-(3,4-dichlorophenyl)-5-(2-[3-[1-(ethylsulfonyl)-4-piperidinyl]-1-azetanyl]ethyl)tetrahydro-2(1H)-pyridinone] | –

Structure (SMILES) | Ki [1] | half-life at 1 µM ([2]; pH 7.4) | Ki [3] | half-life at 1 µM [2]
CS(=O)(=O)N1CCC(C2CN(CC[C@]3(c4ccc(Cl)c(F)c4)CCC(=O)N(CC4CC4)C3)C2)CC1 [Example 2] | 2.51 nM | – | – | > 2 h
